Bounds are passed on as bounds.

T1 sequence (P08238 whole entry): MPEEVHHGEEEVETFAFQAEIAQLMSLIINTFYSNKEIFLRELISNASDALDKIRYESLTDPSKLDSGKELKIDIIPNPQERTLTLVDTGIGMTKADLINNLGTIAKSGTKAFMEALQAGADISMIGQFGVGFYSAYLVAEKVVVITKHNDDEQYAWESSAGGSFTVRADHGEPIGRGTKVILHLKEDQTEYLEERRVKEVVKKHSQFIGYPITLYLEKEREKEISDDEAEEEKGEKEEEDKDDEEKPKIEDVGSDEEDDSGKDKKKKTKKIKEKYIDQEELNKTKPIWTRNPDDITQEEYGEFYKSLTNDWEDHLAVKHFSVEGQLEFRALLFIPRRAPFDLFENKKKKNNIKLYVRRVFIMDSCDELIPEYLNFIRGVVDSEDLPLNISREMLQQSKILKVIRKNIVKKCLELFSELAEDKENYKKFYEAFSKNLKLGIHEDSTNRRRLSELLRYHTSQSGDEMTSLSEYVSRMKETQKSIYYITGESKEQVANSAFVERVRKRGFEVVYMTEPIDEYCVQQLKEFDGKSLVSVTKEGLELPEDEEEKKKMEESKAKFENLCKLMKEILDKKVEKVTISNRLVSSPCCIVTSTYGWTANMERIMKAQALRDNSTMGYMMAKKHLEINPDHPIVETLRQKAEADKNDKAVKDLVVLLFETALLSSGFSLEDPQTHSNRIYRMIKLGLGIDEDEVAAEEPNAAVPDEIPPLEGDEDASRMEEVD

This test addresses T1, human full-length HSP90 (Homo sapiens, UniProt P08238).
T1 construct: E. coli expressed human full-length HSP90 protein; made in house; host or cells: E. coli
The test can be described thus: Fluorescence polarization assay (competitive displacement of probe RBT0045864-FAM from HSP90). It is filed as binding. The conditions noted are these: fluorescence polarisation assay, E. coli expressed human full-length HSP90, probe 80 nM. The text has this: A fluorescence polarization assay was employed for the evaluation of some of the compounds of the Examples:
Fluorescence Polarization Assay
Fluorescence polarization {also known as fluorescence anisotropy} measures the rotation of a fluorescing species in solution, where the larger molecule the more polarized the fluorescence emission. When the fluorophore is excited with polarized light, the emitted light is also polarized. The molecular size is proportional to the polarization of the fluorescence emission.
The fluoroscein-labelled probe—RBT0045864-FAM—
[drawing 25] binds to HSP90 {full-length human, full-length yeast or N-terminal domain HSP90} and the anisotropy {rotation of the probe:protein complex} is measured.
Test compound is added to the assay plate, left to equilibrate and the anisotropy measured again. Any change in anisotropy is due to competitive binding of compound to HSP90, thereby releasing probe.
Chemicals are of the highest purity commercially available and all aqueous solutions are made up in AR water. • 1) Costar 96-well black assay plate #3915 • 2) Assay buffer of (a)100 mM Tris pH7.4; (b) 20 mM KCl; (c) 6 mM MgCl2. Stored at room temperature. • 3) BSA (bovine serum albumen) 10 mg/ml (New England Biolabs #B9001S) • 4) 20 mM probe in 100% DMSO stock concentration. Stored in the dark at RT. Working concentration is 200 nM diluted in AR water and stored at 4° C. Final concentration in assay 80 nM. • 5) E. coli expressed human full-length HSP90 protein, purified >95% (see, e.g., Panaretou et al., 1998) and stored in 50 μL aliquots at −80° C. Protocol • 1) Add 100 μl 1× buffer to wells 11A and 12A (=FP BLNK) • 2) Prepare assay mix—all reagents are kept on ice with a lid on the bucket as the probe is light-sensitive.
• 3) Aliquot 100 μl assay mix to all other wells • 4) Seal plate and leave in dark at room temp for 20 minutes to equilibrate Compound Dilution Plate—1×3 Dilution Series • 1) In a clear 96-well v-bottom plate—{#VWR 007/008/257} add 10 μl 100% DMSO to wells B1 to H11 • 2) To wells A1 to A11 add 17.5 μl 100% DMSO • 3) Add 2.5 μl cpd to A1. This gives 2.5 mM {50×} stock cpd—assuming cpds 20 mM. • 4) Repeat for wells A2 to A10. Control in columns 11 and 12. • 5) Transfer 5 μl from row A to row B—not column 12. Mix well. • 6) Transfer 5 μl from row B to row C. […] In column 11 {provides standard curve} only add compound B11-H11. Add 2 μl of 100 mM standard cpd to wells B12-H12 {is positive control} • 13) The Z′ factor is calculated from zero controls and positive wells. It typically gives a value of 0.7-0.9.
The compounds tested in the above assay were assigned to one of two activity ranges, namely A=<10 μM; B=>10 μM, and those assignments are reported above.
In the case of `O=C(O)c1nnn(-c2ccc(O)cc2O)c1-c1ccc(F)cc1` [Example 1, 1-(2,4-Dihydroxy-phenyl)-5-(4-fluoro-phenyl)-1H-[1,2,3]triazole-4-carboxylic acid], the IC50 was > 10 µM.
For the molecule `Oc1ccc(-c2nnc(S)n2-c2cccc3ccccc23)c(O)c1` [(iii)], the half-maximal inhibitory concentration (IC50) was < 10 µM.
`CCOC(=O)c1nnn(-c2cc(Cl)c(O)cc2O)c1-c1ccc(F)cc1` [Example 3, 1-(5-Chloro-2,4-dihydroxy-phenyl)-5-(4-fluoro-phenyl)-1H-[1,2,3]triazole-4-carboxylic acid ethyl ester]: the half-inhibitory concentration (IC50) was < 10 µM.
Consider `Oc1ccc(-c2csc(-c3c[nH]c4ccccc34)n2)c(O)c1` [(i)], for which the IC50 was > 10 µM.
Regarding `COc1ccc(OC)c(-n2c(S)nnc2-c2ccc(O)cc2O)c1` [(v)], the half-inhibitory concentration (IC50) was < 10 µM.
In the case of `CCOC(=O)c1nnn(-c2ccc(O)cc2O)c1-c1ccc(F)cc1` [Example 2, 1-(2,4-Dihydroxy-phenyl)-5-(4-fluoro-phenyl)-1H-[1,2,3]triazole-4-carboxylic acid ethyl ester] it was > 10 µM.
`Oc1ccc(C2NN=C(Cc3ccccc3)S2)c(O)c1` (centres unmarked) [(ii)]: the IC50 was > 10 µM.
Take `Cc1ccccc1-n1c(S)nnc1-c1ccc(O)cc1O` [(iv)]: the concentration for half-maximal inhibition (IC50) is < 10 µM.
